Earlier results in publication PMC12308805, “Ultrahigh-Throughput Virtual Screening Strategies against PPI Targets: A Case Study of STAT Inhibitors” (Journal of Chemical Information and Modeling, 2025).
Square brackets hold non-standard residues; d marks the D form. Ends that are not written are not given here. Peptide text beside a SMILES is read from it. * marks the point of attachment. d(pY) = N[C@H](Cc1ccc(OP(=O)(O)O)cc1)C(=O)O; pY = N[C@@H](Cc1ccc(OP(=O)(O)O)cc1)C(=O)O; Hydrocinnamoyl = O=C(CCc1ccccc1)*

Tested on: STAT3
Conditions: sheet 6QHD_actives_decoys, retrospective screening set for STAT3 SH2 domain (PDB 6QHD); decoys are presumed inactives, not tested; ref DUD-E; cited from earlier work
In the case of `Cc1ccc(S(=O)(=O)Nc2ccc(N3CCN(CC(=O)NCC(C)C)CC3)cc2C(=O)O)cc1` [Decoy918], the Type is listed as “Inactive (Decoy)”. In the case of `CCOC(=O)c1sc(NC(=O)CSc2nnc(CNC(=O)c3ccccc3OC)n2C)c(C(=O)OCC)c1C` [Decoy843], the Type is given as “Inactive (Decoy)”. For `C=CCSc1ccccc1NC(=O)CSc1nnc(N/N=C/c2c(O)ccc3ccccc23)n1N` [Decoy924], the Type is given as “Inactive (Decoy)”. In the case of `CCCOc1ccc([C@@H]2C(C(=O)c3c(C)nc4ccccn34)=C(O)C(=O)N2CCN(CC)CC)cc1OCC` [Decoy759], the Type is listed as “Inactive (Decoy)”. In the case of `CCOc1ccccc1NC(=O)CSC1=C(C#N)[C@H](c2ccco2)C(/C(O)=N/c2ccc(S(N)(=O)=O)cc2)=C(C)N1` [Decoy831], the Type is given as “Inactive (Decoy)”. In the case of `COc1cc(-c2ccc(/N=N/c3cc(S(=O)(=O)O)c4ccccc4c3O)c(OC)c2)ccc1/N=N\c1c(S(=O)(=O)O)cc2cc(C(=O)O)c(O)cc2c1O` [Decoy859], the Type is given as “Inactive (Decoy)”. For `CN(CCO)c1ccc(/C=N\Nc2ccc(S(=O)(=O)Nc3ccccc3C(=O)O)cc2[N+](=O)[O-])cc1` [Decoy894], the Type is listed as “Inactive (Decoy)”. In the case of WAGGDASGE [Decoy910], the Type is given as “Inactive (Decoy)”. In the case of `CC(=C\C(=O)O)/C=C(\C)C[C@@H](C)CCCC[C@@H](O)[C@@H](CO)C(=O)OC[C@H]1O[C@@H](O)[C@@H](O)[C@@H](O)[C@H]1O` [Decoy875], the Type is listed as “Inactive (Decoy)”. In the case of `O[C@@H](CNCCOc1ccccc1OCCNC[C@H](O)COc1cccc2[nH]c3ccccc3c12)COc1cccc2[nH]c3ccccc3c12` [Decoy878], the Type is given as “Inactive (Decoy)”. In the case of `O=C(CCCCC(=O)Nc1ccc(S(=O)(=O)N2CCCCC2)cc1)Nc1ccc(S(=O)(=O)N2CCCCC2)cc1` [Decoy771], the Type is given as “Inactive (Decoy)”. For `CCOC(=O)c1[nH]c(C)c(C(=O)OCC(=O)NCC(=O)Nc2ccc(F)c(F)c2F)c1C` [Decoy747], the Type is given as “Inactive (Decoy)”. In the case of `CCOC(=O)c1c(C)[nH]c(C(=O)OCC(=O)NCC(=O)Nc2ccc(F)c(F)c2F)c1C` [Decoy761], the Type is listed as “Inactive (Decoy)”. For `COc1ccccc1NCc1nnc(SCC(=O)Nc2ccc3c(c2)C(O)=NC3=O)n1-c1ccccc1` [Decoy768], the Type is given as “Inactive (Decoy)”. For `COc1ccc2[nH]cc(CCN/C(=N/C(=O)/C=C/c3cc(OC)c(OC)c(OC)c3)Nc3nc(C)cc(C)n3)c2c1` [Decoy944], the Type is listed as “Inactive (Decoy)”. For `CCCCN(C(=O)c1cccc(S(=O)(=O)N2CCN(C)CC2)c1)c1c(N)n(CCCC)c(=O)[nH]c1=O` [Decoy864], the Type is given as “Inactive (Decoy)”. In the case of `CCOc1cc([C@@H]2C(C(=O)c3ccc4c(c3)OCCO4)=C(O)C(=O)N2CCCN2CCOCC2)ccc1O` [Decoy848], the Type is given as “Inactive (Decoy)”.

Same assay, conditions: sheet 6QHD_actives_decoys; known STAT3 actives of the retrospective screening set; ref ChEMBL / literature; cited from earlier work
In the case of `CSCC[C@H](NC(=O)[C@H](C)NC(=O)[C@H](CCC(N)=O)NC(=O)[C@@H]1CCCN1C(=O)[C@@H](CCCN=C(N)N)NC(=O)[C@@H](Cc1ccc(OP(=O)(O)O)cc1)NC(C)=O)C(N)=O` [CHEMBL345419] (Ac-[d(pY)][dR]PQAM-NH2), the “Type (known STAT3 active)” value is listed as “Active”. For `CC(C)C[C@H](NC(=O)/C=C/c1ccc(OP(=O)(O)O)cc1)C(=O)N1C[C@H]2C[C@H]2[C@H]1C(=O)NCCOCc1ccccc1` [CHEMBL583728], the “Type (known STAT3 active)” value is listed as “Active”. In the case of `CC(C)C[C@H](NC(=O)[C@H](Cc1ccc(OP(=O)(O)O)cc1)NC(=O)CCc1ccccc1)C(=O)N1CCC[C@H]1C(=O)N[C@@H](CCC(N)=O)C(=O)N[C@H](C(N)=O)[C@@H](C)O` [CHEMBL197844] (Hydrocinnamoyl-[pY]LPQT-NH2), the “Type (known STAT3 active)” value is given as “Active”. For `CC(C)C[C@H](NC(=O)/C=C/c1ccc(OP(=O)(O)O)cc1)C(=O)N1CCC[C@H]1C(=O)N[C@@H](COC(N)=O)C(=O)NCc1ccccc1` [CHEMBL414034], the “Type (known STAT3 active)” value is given as “Active”.

Same assay, conditions: sheet 6QHD_actives_decoys; retrospective screening set for STAT3 SH2 domain (PDB 6QHD); […]; ref DUD-E; cited from earlier work
For `COc1ccccc1NS(=O)(=O)c1cccc(C(=O)NNC(=O)c2cc3ccccc3[nH]c2=O)c1` [Decoy693], the Type is listed as “Inactive (Decoy)”. In the case of `O=c1c(C[C@H](O)CN2CCOCC2)c(O)n(C[C@H](O)CN2CCOCC2)c(=O)n1C[C@H](O)CN1CCOCC1` [Decoy680], the Type is given as “Inactive (Decoy)”. For `Cc1ccc(S(=O)(=O)NCCCCNS(=O)(=O)c2ccc(C)c([N+](=O)[O-])c2)cc1[N+](=O)[O-]` [Decoy360], the Type is given as “Inactive (Decoy)”. For `COc1cc(NS(=O)(=O)c2ccc(NC(=S)NC(=O)c3cc(Cl)cc(Cl)c3)cc2)ncn1` [Decoy392], the Type is given as “Inactive (Decoy)”.

Same assay, conditions: sheet 6QHD_actives_decoys; retrospective screening set for STAT3 SH2 domain (PDB 6QHD); decoys generated with DUD-E and presumed inactive, not tested; ref DUD-E; cited from earlier work
For `Cc1ccc(NC(=O)CN(C)C(=O)[C@H](C)OC(=O)CNC(=O)c2ccc(Cl)c([N+](=O)[O-])c2)cc1` [Decoy457], the Type is listed as “Inactive (Decoy)”. In the case of `COc1cc2cc(Oc3ccc(CCC(=O)O)c(O[C@@H]4O[C@H](CO)[C@@H](O)[C@H](O)[C@H]4O)c3)c(=O)oc2cc1O` [Decoy393], the Type is listed as “Inactive (Decoy)”. In the case of `COc1ccccc1OCCNC[C@@H](O)CN(CCOc1ccccc1OC)C[C@H](O)COc1cccc2[nH]c3ccccc3c12` [Decoy707], the Type is listed as “Inactive (Decoy)”. For `O=C(O)c1cccc(NC(=O)[C@@H]2C[C@H](SS[C@@H]3CN[C@H](C(=O)Nc4cccc(C(=O)O)c4)C3)CN2)c1` [Decoy613], the Type is listed as “Inactive (Decoy)”. In the case of `Cc1ccc(NC(=O)NC[C@@H](C)Cn2cccn2)cc1NC(=O)NC[C@H](C)Cn1cccn1` [Decoy618], the Type is given as “Inactive (Decoy)”. In the case of `CC(=O)O[C@H]1[C@@H](O)[C@H](CO)O[C@H](O[C@@H](C/N=C/c2c(O)ccc3ccccc23)[C@@H](CO)O[C@H](O)C/N=C/c2c(O)ccc3ccccc23)[C@@H]1O` [Decoy442], the Type is given as “Inactive (Decoy)”. In the case of `CCOc1ccc([C@@H]2c3c(-c4cc(Cl)c(C)cc4O)n[nH]c3C(=O)N2CCCOC)cc1OCC` [Decoy460], the Type is given as “Inactive (Decoy)”. For `O=C(NCCCN1CCN(CCCNC(=O)c2cc3ccccc3oc2=O)CC1)c1cc2ccccc2oc1=O` [Decoy526], the Type is listed as “Inactive (Decoy)”. In the case of `COc1ccc(C(=O)O[C@H]2[C@@H]3C=CO[C@@H](O[C@@H]4O[C@H](COC(C)=O)[C@@H](OC(C)=O)[C@H](OC(C)=O)[C@H]4OC(C)=O)[C@@H]3[C@](O)(COC(C)=O)[C@@H]2O)cc1` [Decoy372], the Type is listed as “Inactive (Decoy)”. For `CC[C@@H](C)[C@@H](NC(=O)CNC(=O)CCc1c(C)c2cc3c(C)coc3c(C)c2oc1=O)C(=O)O` [Decoy649], the Type is listed as “Inactive (Decoy)”. In the case of `C=C[C@H]1[C@H](O[C@H]2O[C@@H](CO)[C@@H](O)[C@@H](O)[C@H]2O)OC=C(C(=O)OC)[C@H]1CCOC(=O)c1cc(O)c(O)c(O)c1` [Decoy700], the Type is listed as “Inactive (Decoy)”. In the case of `CCOc1ccc(S(=O)(=O)NC[C@@H](c2cccnc2)S(=O)(=O)c2ccc(OCC)cc2)cc1` [Decoy534], the Type is listed as “Inactive (Decoy)”. For `COc1cc(-c2nnc(SCC(=O)N/N=C/c3cccc(O)c3)n2-c2ccccc2)cc(OC)c1OC` [Decoy474], the Type is given as “Inactive (Decoy)”. For `CCCCCCCCCC(=O)O[C@H]1[C@@H](O[C@@]2(CO)O[C@@H](CO)[C@@H](O)[C@H]2O)O[C@@H](CO)[C@@H](OC(=O)C(C)C)[C@@H]1OC(=O)C(C)C` [Decoy419], the Type is given as “Inactive (Decoy)”. For `CC(C)(C)OC(=O)N[C@H](CSSC[C@@H](NC(=O)OC(C)(C)C)C(=O)OC[C@H]1O[C@H](O)[C@@H](O)[C@@H](O)[C@H]1O)C(=O)OC[C@H]1O[C@H](O)[C@@H](O)[C@@H](O)[C@H]1O` [Decoy536], the Type is given as “Inactive (Decoy)”. In the case of `COc1cc(/C=N/Nc2nnc(SCC(=O)Nc3ccc(C)cc3C)n2N)cc(OC)c1OC` [Decoy379], the Type is listed as “Inactive (Decoy)”. For `COc1cc(O)cc(C)c1C(=O)O[C@H]1[C@H](O)[C@@H](O)[C@@H](OC2[C@@H](O)[C@H](O)C(O)[C@H](O)[C@@H]2O)O[C@@H]1CO` (stereo partly drawn) [Decoy641], the Type is given as “Inactive (Decoy)”.
